Columns and labels:
MT1 receptor = MT1 receptor (Homo sapiens, UniProt P48039); assay: Melatonin MT1 receptor binding study; conditions: 2-[125I]-iodomelatonin radioligand
Experimental: (§1) The MT1 or MT2 receptor binding experiments are carried out using 2-[^125I]-iodomelatonin as reference radioligand. The radioactivity retained is determined using a liquid scintillation counter.
(§2) Competitive binding experiments are then carried out in triplicate using the various test compounds. A range of different concentrations is tested for each compound. The results enable the binding affinities of the compounds tested (Ki) to be determined.

human 5-HT2C receptor = target: T1, human 5-HT2C receptor (Homo sapiens, UniProt P28335); assay: Serotoninergic 5-HT2C receptor binding study; conditions: CHO cell membranes, [3H]-mesulergine (1 nM)
T1 construct: expressed in transfected cells
T1 sequence (P28335 33-458): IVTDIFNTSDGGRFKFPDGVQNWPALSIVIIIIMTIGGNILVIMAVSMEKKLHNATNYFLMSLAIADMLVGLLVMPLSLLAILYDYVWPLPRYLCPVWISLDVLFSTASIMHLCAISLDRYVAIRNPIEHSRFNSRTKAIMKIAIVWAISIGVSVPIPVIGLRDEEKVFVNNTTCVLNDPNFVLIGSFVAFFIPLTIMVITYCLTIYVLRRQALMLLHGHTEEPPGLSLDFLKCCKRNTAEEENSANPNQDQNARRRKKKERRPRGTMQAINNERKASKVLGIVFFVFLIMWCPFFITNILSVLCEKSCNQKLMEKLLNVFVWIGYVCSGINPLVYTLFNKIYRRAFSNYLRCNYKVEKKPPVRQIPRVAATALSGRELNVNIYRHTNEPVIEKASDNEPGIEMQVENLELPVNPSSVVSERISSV
Experimental: The affinity of the compounds for the human 5-HT2C receptor is evaluated on membrane preparations from CHO cells stably expressing that receptor.
Incubation is carried out in 50 mM TRIS buffer, pH 7.4, containing 10 mM MgCl2 and
0.1% BSA, in the presence of [^3H]-mesulergine (1 nM) and 25 fmol/ml of receptor. Non-specific binding is determined in the presence of 10 μM mianserin.
The reaction is stopped by the addition of 50 mM TRIS buffer, pH 7.4, followed by a filtration step and 3 successive rinses: the radioactivity bound to the membranes remaining on the filters (GF/B pretreated with 0.1% PEI) is determined by liquid scintillation counting.

MT2 receptor = target: T2, MT2 receptor (Homo sapiens, UniProt P49286); assay: Melatonin MT2 receptor binding study; conditions: 2-[125I]-iodomelatonin radioligand
T2 sequence (P49286 1-362): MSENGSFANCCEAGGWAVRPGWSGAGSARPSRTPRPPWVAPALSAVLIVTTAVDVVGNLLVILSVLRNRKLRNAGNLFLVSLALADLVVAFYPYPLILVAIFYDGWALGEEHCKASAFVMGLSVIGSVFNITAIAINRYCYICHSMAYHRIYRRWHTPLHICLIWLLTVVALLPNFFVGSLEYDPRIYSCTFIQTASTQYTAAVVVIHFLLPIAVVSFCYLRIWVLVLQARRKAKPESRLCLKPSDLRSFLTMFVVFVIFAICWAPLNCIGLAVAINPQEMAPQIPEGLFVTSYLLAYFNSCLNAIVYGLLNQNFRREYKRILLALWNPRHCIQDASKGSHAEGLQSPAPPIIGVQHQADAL
Experimental: as §1, §2

Sequence of MT1 receptor (P48039 whole entry): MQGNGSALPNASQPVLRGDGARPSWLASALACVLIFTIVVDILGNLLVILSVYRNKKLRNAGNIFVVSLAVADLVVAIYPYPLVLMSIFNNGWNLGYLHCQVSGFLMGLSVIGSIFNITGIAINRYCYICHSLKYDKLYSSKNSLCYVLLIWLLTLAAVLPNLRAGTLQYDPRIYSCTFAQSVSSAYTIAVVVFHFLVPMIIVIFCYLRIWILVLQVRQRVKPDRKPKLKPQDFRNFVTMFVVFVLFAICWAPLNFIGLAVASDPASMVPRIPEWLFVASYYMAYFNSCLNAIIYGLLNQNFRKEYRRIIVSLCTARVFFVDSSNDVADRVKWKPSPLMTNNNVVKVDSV

## COc1ccc2cccc(C(CF)CNC(C)=O)c2c1 (stereo not drawn) [Example 5, N-[3-Fluoro-2-(7-methoxy-1-naphthyl)propyl]acetamide]
MT1 receptor
  Ki: 0.1 nM
Human 5-HT2C receptor
  Ki: 6000 nM
MT2 receptor
  Ki: 0.2 nM
